{
  "source": "patent EP0000190A1",
  "about": "“Solutions with a local anesthetic effect” (Dr. Karl Thomae GmbH, priority 1977, dated 1979)",
  "key": {"[1]": {"tested_on": "Cornea", "experiment": "Local anaesthetic effect (touch stimulus) and corneal epithelium status after eye drops in rabbits, versus Kerakain", "assay_type": "in vivo", "conditions": "Kaninchen", "from_the_text": "Die überlegene kurzfristige lokalanästhetische Wirkung der neuen Lösungen wurde im Vergleich zu Proxymetacain (0,5%ige 2-Diäthyl-aminoäthyl-3-amino-4-propoxybenzoesäure-hydrochlorid-Lösung = Chibro® -Kerakain) am Kaninchen wie folgt geprüft: • Den Versuchstieren, die nach Spaltlampen-Untersuchung keine Schädigung des Cornea-Epithels zeigten und klinisch keine konjunktivale Entzündung aufwiesen, wurden jeweils 2 Tropfen der entsprechenden Augentropfen appliziert. Die Sensibilität der zentralen Cornea ist eine Minute nach Applikation durch Berührungsreiz, das gesamte Hornhautepithel und die Sensibilität 5, 10, 15 und 30 Minuten nach Applikation beurteilt worden. Der Untersuchen. der die Sensibilität und den Hornhaut-Epithel-Status beurteilte, war hierbei nicht darüber informiert, welches Auge jeden Tieres mit Chibro® -Kerakain behandelt war.\nDie nachfolgende Tabelle enthält die aufgefundenen Versuchsergebnisse: […]"}, "[2]": {"tested_on": "Mund- bzw. Rachenschleimhaut", "experiment": "Local anaesthesia of human mouth and throat mucosa after spray from a metering pump valve", "assay_type": "in vivo, Mensch", "conditions": "2%ige NA 872-Lösung, 3-8 Hübe des Pump-Dosier-Ventils, Mund- bzw. Rachenschleimhaut des Menschen, 6 Probanden", "from_the_text": "Die oben aufgezeigte Wirkung konnte unter Heranziehung des Aesthe-siometers nach Cochet und Bonnet am menschlichen Auge mit Tropf- bzw. bei der Anwendung als Spray-Applikation mit Hilfe des Pump-Dosier-Ventils an der Mund- bzw. Rachenschleimhaut bestätigt werden. Bei einer Konzentration von 0,5 bis 1 % NA 872 und der Appli kation von 1 bis 2 Tropfen pro Auge tritt die lokalanästhetische Wirkung innerhalb von 30 bis 60 Sekunden ein, die Wirkungsdauer betrug 15 bis 30 Minuten, bzw. bei der Applikation einer 2%igen NA 872-Lösung mittels 3-8 Hüben des Pump-Dosier-Ventils an der Mund- bzw."}, "[3]": {"experiment": "Acute toxicity", "conditions": "mouse, in vivo, po, Maus, als Hydrochlorid"}, "[4]": {"conditions": "0,5 % NA 872, 2 Tropfen, 5 Minuten nach Applikation"}, "[5]": {"conditions": "1,0 % NA 872, 2 Tropfen, 5 Minuten nach Applikation"}, "[6]": {"conditions": "1,0 % NA 872, 2 Tropfen, 10 Minuten nach Applikation"}, "[7]": {"conditions": "1,0 % NA 872, 2 Tropfen, 15 Minuten nach Applikation"}, "[8]": {"conditions": "2,0 % NA 872, 2 Tropfen, 5 Minuten nach Applikation"}, "[9]": {"conditions": "2,0 % NA 872, 2 Tropfen, 10 Minuten nach Applikation"}, "[10]": {"conditions": "Augentropfen, conclusion from the table"}},
  "data": [
    {"smiles": "Nc1c(Br)cc(Br)cc1CN[C@H]1CC[C@H](O)CC1", "note": "[NA 872, 2-Amino-3,5-dibrom-N-(trans-4-hydroxycyclohexyl)-benzylamin]", "values": [
      {"measurement": "Erhobener Anästhesie-Befund (A)", "setting": "[1]; 0,5 % NA 872, 2 Tropfen, 1 Minute nach Applikation", "value": "++"},
      {"measurement": "Erhobener Anästhesie-Befund (A)", "setting": "[1]; [4]", "value": "+"},
      {"measurement": "Hornhaut-Befund (HH)", "setting": "[1]; [4]", "value": "o.B."},
      {"measurement": "Hornhaut-Befund (HH)", "setting": "[1]; 0,5 % NA 872, 2 Tropfen, 10 Minuten nach Applikation", "value": "o.B."},
      {"measurement": "Hornhaut-Befund (HH)", "setting": "[1]; 0,5 % NA 872, 2 Tropfen, 15 Minuten nach Applikation", "value": "o.B."},
      {"measurement": "Hornhaut-Befund (HH)", "setting": "[1]; 0,5 % NA 872, 2 Tropfen, 30 Minuten nach Applikation", "value": "o.B."},
      {"measurement": "Erhobener Anästhesie-Befund (A)", "setting": "[1]; 1,0 % NA 872, 2 Tropfen, 1 Minute nach Applikation", "value": "++"},
      {"measurement": "Erhobener Anästhesie-Befund (A)", "setting": "[1]; [5]", "value": "+"},
      {"measurement": "Hornhaut-Befund (HH)", "setting": "[1]; [5]", "value": "o.B."},
      {"measurement": "Erhobener Anästhesie-Befund (A)", "setting": "[1]; [6]", "value": "+"},
      {"measurement": "Hornhaut-Befund (HH)", "setting": "[1]; [6]", "value": "o.B."},
      {"measurement": "Erhobener Anästhesie-Befund (A)", "setting": "[1]; [7]", "value": "(+)"},
      {"measurement": "Hornhaut-Befund (HH)", "setting": "[1]; [7]", "value": "o.B."},
      {"measurement": "Hornhaut-Befund (HH)", "setting": "[1]; 1,0 % NA 872, 2 Tropfen, 30 Minuten nach Applikation", "value": "o.B."},
      {"measurement": "Erhobener Anästhesie-Befund (A)", "setting": "[1]; 2,0 % NA 872, 2 Tropfen, 1 Minute nach Applikation", "value": "++"},
      {"measurement": "Erhobener Anästhesie-Befund (A)", "setting": "[1]; [8]", "value": "++"},
      {"measurement": "Hornhaut-Befund (HH)", "setting": "[1]; [8]", "value": "o.B."},
      {"measurement": "Erhobener Anästhesie-Befund (A)", "setting": "[1]; [9]", "value": "+"},
      {"measurement": "Hornhaut-Befund (HH)", "setting": "[1]; [9]", "value": "o.B."},
      {"measurement": "Hornhaut-Befund (HH)", "setting": "[1]; 2,0 % NA 872, 2 Tropfen, 15 Minuten nach Applikation", "value": "o.B."},
      {"measurement": "Hornhaut-Befund (HH)", "setting": "[1]; 2,0 % NA 872, 2 Tropfen, 30 Minuten nach Applikation", "value": "o.B."},
      {"measurement": "Nebenwirkung auf das Epithel im Vergleich zur Vergleichslösung", "setting": "[1]; [10]", "value": "geringere Nebenwirkung auf das Epithel"},
      {"measurement": "lokalanästhetische Wirkung im Vergleich zur Vergleichslösung", "setting": "[1]; [10]", "value": "kürzere lokalanästhetische Wirkung als die Vergleichslösung"},
      {"measurement": "Anästhesie", "setting": "[2]", "value": "leichte Anästhesie"},
      {"measurement": "LD50", "setting": "[3]", "value": 2720, "unit": "mg/kg"}
    ]}
  ]
}
